Assay: Sensory evaluation of sweetness compared with pure (R)-phyllodulcin (Example 4)
Type: in vivo
Settings: dose 5 mg/kg; panel n=20
Method: Two samples (samples 1 and 2) were prepared by a method according to the invention. Particularly, the leaf material was extracted two times with ethyl acetate (in an amount of 5 times of the weight of the leaf material) and wherein the precipitation was performed with ethanol at 10° C. Furthermore, the solid was washed with ethanol (in an amount of 3 times of the weight of the solid) at 5° C.
Sample 3 was extracted from leaf material, however, no precipitation was performed.
The samples were then compared with the pure substance (R)-phyllodulcin with regard to their sensory evaluation.

COc1ccc([C@H]2Cc3cccc(O)c3C(=O)O2)cc1O [(R)-phyllodulcin, (3R)-8-Hydroxy-3-(3-hydroxy-4-methoxyphenyl)-3,4-dihydro-1 H-isochromen-1-one]
Sweetness: 27.0%
